Data: patent publication US20120283335A1, “Analogs of Propofol, Preparation Thereof and Use as Anesthetics” (priority 2008, published 2012)
“Also recorded” adds a separate entry of the source.

What was measured:
Male Sprague Dawley rats = assay: Test A. Loss of Righting Reflex Assay with dose escalation to maximum tolerated dose; assay type: in vivo; conditions: rat; for Safety compared with propofol: doses escalated; for Potency compared with propofol: equal dose (7 mg/kg), 7 mg/kg
Source text: The ability of a compound of the invention to produce an anesthetic effect (i.e. efficacy) can be determined using standard pharmacological models that are well known to the art. […] The potency of such a compound was compared to the potency of propofol using this assay.
The safety of a compound of the invention can be determined using standard pharmacological models that are well known to the art. […] The safety of such a compound was compared to that of propofol using this assay.
Male Sprague Dawley rats were restrained in a holder, and test compound or propofol was injected in the tail vein (based on milligrams (mg) compound per kilogram (kg) body weight). Following administration, the rats were placed in a dorsal recumbent position on a heating blanket. The time to onset for the loss of the Righting Reflex (RR-ability of rat to right itself) was recorded, as was the duration of the loss of the RR. Doses were escalated until the maximum tolerated doses were achieved.

pig = assay: Test B. Anesthetized Pig Model (hemodynamic profile); assay type: in vivo; conditions: 20 minute intravenous infusion, data in FIGS. 1 and 2
Procedure: The hemodynamic profile of a compound of the invention can be determined using standard pharmacological models that are well known to the art. The hemodynamic and anesthetic profiles of a compound of the invention can be evaluated simultaneously using an anesthetized pig model (as described in Test B below).
The anesthetic induction was performed using a modification of a technique described by Ko et al (Ko et al., Lab Anim Sci 1993; 43: 476-80) for swine (Telazol, xylazine and ketamine given as an intramuscular injection). The minimal effective dose for induction and tracheal intubation was used. […]
A compound of the invention or propofol was administered intravenously by a 20 minute infusion after the stabilization period through the peripheral IV catheter. […] Blood samples (1 mL each) were collected at pre-dose and at 2, 4, 6, 8, 10, 12, 15, 20, 22, […], 25, 35, 50, 65 and 80 minutes after the start of the first infusion for pharmacokinetic purposes; EEG were recorded continuously as the primary pharmacodynamic endpoint. […]
The EEG signal was fed to a BIS analyzer (Aspect Medical) which provided continuous output of processed EEG data. The output consisted of a “BIS” number calculated by a proprietary algorithm that ranges between 100 (fully conscious) and 0 (isoelectric) and indicated brain activity.
Hemodynamic data were recorded and plotted to assess trends over the drug exposure period. […]

Compound	Safety compared with propofol (Male Sprague Dawley rats)	Potency compared with propofol (Male Sprague Dawley rats)	Outcome: deaths (Male Sprague Dawley rats; tail vein bolus dose 7 mg/kg)	Outcome: minutes of sleep post bolus dose (Male Sprague Dawley rats; tail vein bolus dose 7 mg/kg)	Outcome: deaths (Male Sprague Dawley rats; tail vein bolus dose 14 mg/kg)	Outcome: deaths (Male Sprague Dawley rats; tail vein bolus dose 21 mg/kg)	Potency compared with propofol (Male Sprague Dawley rats; listed as 2-(1-Ethylpropyl)-6-isopropylphenol)	Hemodynamic properties compared with propofol (pig)
CC(C)c1cccc(C(C)C(C)C)c1O (racemic) [2-(3-methyl)secbutyl-6-isopropylphenol]	greater safety compared to propofol; also recorded: improved safety	at least equivalent, if not greater potency than propofol; also recorded: at least equivalent potency	0/6 deaths	7.5 minutes of sleep post	0/6 deaths	0/6 deaths	–	–
CCC(CC)c1cccc(C(C)C)c1O [2-(1-ethylpropyl)-6-isopropylphenol]	greater safety compared to propofol; also recorded: improved safety	at least equivalent potency	0/6 deaths	9.9 minutes of sleep post	0/6 deaths	0/6 deaths	at least equivalent, if not greater, potency than propofol	improved hemodynamic properties
CC(C)c1cccc(C(C)C)c1O [Propofol, 2,6-diisopropylphenol]	–	–	0/10 deaths	7.1 minutes of sleep post	6/10 deaths	4/6 deaths	–	–
